Laboratory results: patent publication EP1203770A1 (priority 1992, dated 1994)
“Also recorded” adds a separate entry of the source. Like-named read-outs stand apart in the source and are kept apart here.

Tests used:
[1] = system: testosterone 5α-reductase; test: In vitro testosterone 5α-reductase inhibitor assay; type: biochemical; details: at a dose of at least 0.1 mM; dog and rat prostates
Method: The following five (5) compounds of the present invention were tested in an in vitro testosterone 5α-reductase inhibitor assay: 3-(α-Ethylbenzyl)-6-(α-ethylphenethyl)-4-hydroxy-2H-pyran-2-one; 6-(1-Benzyl-propyl)-3-(cyclopropyl-phenyl-methyl)-4-hydroxy-pyran-2-one; 3-(α-Ethylbenzyl)-6-(α-ethylbenzyl)-4-hydroxy-2H-pyran-2-one; 3-(α-Ethylbenzyl)-6-phenethyl-4-hydroxy-2H-pyran-2-one; 4-Hydroxy-3-(1-phenylpropyl)-6-[1-[(tetrahydro-2H-pyran-3-yl)methyl]propyl]-2H-pyran-2-one. This assay is very similar to those described in the following references, except for the use of dog and rat prostates in place of human prostates: Proc. Natl. Acad. Sci. USA, Vol. 90: 5277-5281 (1993); J. Steroid. Biochem. Molec. Biol., Vol. 44, No. 2, pp. 121-131 (1993). All five (5) compounds had activity in this assay at a dose of at least 0.1 mM.

HIV-1 protease = target: T1, HIV-1 protease (Human immunodeficiency virus type 1 group M subtype B, UniProt P04585); test: In vitro HIV protease inhibitory assay (HIV Protease FITC Assay); type: biochemical; details: for inhibition at 1 µM / inhibition at 10 µM / inhibition at 100 µM / inhibition at 0.123 µM / inhibition at 0.37 µM / inhibition at 1.1 µM / inhibition at 3.3 µM / inhibition at 30 µM: read-out: HIV-1 Protease % Inhib
T1 construct: The protease (or proteinase), consisting of only 99 amino acids, is among the smallest enzymes known
Method in brief: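 Percent inhibition was read as fluorescence after avidin-bead capture and filtration separated FITC cleavage product from biotinylated substrate. Enzyme and substrate reacted 1 h, RT, dark, at pH 5.5 (0.1 M sodium acetate, 1.0 M NaCl, 0.05% NP-40).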

HIV-1IIIB = test: Inhibition of retroviral replication in infected human T-cell lines (MT4, H9); type: cell-based; details: e.g., MT4 and H9, infected with HIV-1IIIB
Method: Several compounds of the present invention, such as 3-(alpha-ethylbenzyl)-6-(alpha-ethylphenethyl)-4-hydroxy-2H-pyran-2-one, were tested in known human cell lines, such as human T-cell lines, e.g., MT4 and H9, which were infected with HIV-1IIIB, and certain of these compounds were further tested in peripheral blood mononuclear cells (PBMC), which were infected with HIV-1JRCSF (a clinical isolate).

[2] = Four week oral drug safety and toxicity study in beagle dogs (prostate size and weight); type: in vivo
Excerpt: Daily oral doses were divided into two (2) equal doses with at least seven (7) hours between the morning and afternoon dose. Parameters evaluated included twice daily clinical observations; daily evaluation of food and water consumption; twice weekly body weights; pretest and dosage day (dd) 15 or 16 and 24 or 25 electrocardiograms; pretest and dd 23 or 24 ophthalmology examinations; pretest and dd 1, 8, 14, 21 and 28 plasma drug levels; pretest and dd 8, 14, and 28 hemograms and serum chemistries; pretest and dd 14 and 28 urinalyses; terminal body weights, gross necropsy observations and absolute and relative organ weights; and histopathologic evaluation of organs and tissues.

[3] = male dogs, group 2, 50 mg/kg/day oral, 28 days, n=3
[4] = male dogs, group 3, 100 mg/kg/day oral, 28 days, n=3
[5] = male dogs, group 4, 200 mg/kg/day oral, 28 days, n=3
[6] = male dogs, group 5, 400 mg/kg/day oral, 28 days, n=3
[7] = repeat study, 400 mg/kg/day, 4 dogs
[8] = repeat study, male dogs, group 7, 400 mg/kg/day, n=4

Molecule	inhibition at 10 µM (HIV-1 protease; HIV-1 Dose 10.000 uM) [%]	inhibition at 0.123 µM (HIV-1 protease; HIV-1 Dose 0.123 uM) [%]	inhibition at 0.37 µM (HIV-1 protease; HIV-1 Dose 0.370 uM) [%]	inhibition at 1.1 µM (HIV-1 protease; HIV-1 Dose 1.100 uM) [%]	inhibition at 3.3 µM (HIV-1 protease; HIV-1 Dose 3.300 uM) [%]	inhibition at 30 µM (HIV-1 protease; HIV-1 Dose 30.000 uM) [%]	Ki (HIV-1 protease; read-out: HIV-1 FITC Ki) [nM]	also measured
CCC(c1ccccc1)c1c(O)cc(CCc2ccccc2)oc1=O (stereo not drawn) [Example 3, 3-(α-ethylbenzyl)-6-phenethyl-4-hydroxy-2H-Pyran-2-one]	67.4	–	–	–	–	–	–	activity in testosterone 5α-reductase inhibitor assay [1]: had activity; inhibition at 1 µM (HIV-1 protease; HIV-1 Dose 1.000 uM): 19%
CCC(Cc1ccccc1)c1cc(O)c(C(CC)c2ccccc2)c(=O)o1 (stereo not drawn) [Example 13, 3-(α-ethylbenzyl)-6-(αethylphenethyl)-4-hydroxy-2H-Pyran-2-one]	92	–	–	–	–	–	–	activity in testosterone 5α-reductase inhibitor assay [1]: had activity; retroviral replication (HIV-1IIIB): found to inhibit retroviral replication; light microscopic examination of testes, adrenals and pituitaries ([2]; high dose versus control): did not show drug-related changes; Absolute Weight (mean prostate weight) [2, 3]: 8.87 GMs; Relative Weight* (mean prostate weight) [2, 3]: 0.088 % body weight; Absolute Weight (mean prostate weight) [2, 4]: 7.55 GMs; Relative Weight* (mean prostate weight) [2, 4]: 0.074 % body weight; Absolute Weight (mean prostate weight) [2, 5]: 4.58 GMs; Relative Weight* (mean prostate weight) [2, 5]: 0.046 % body weight; Absolute Weight (mean prostate weight) [2, 6]: 4.43 GMs; Relative Weight* (mean prostate weight) [2, 6]: 0.044 % body weight; prostate size and weight ([2]; male dogs, oral 50 to 400 mg/kg/day, 28 days): dose-related decrease in prostate size and weight; also recorded: dose related decrease in prostate size and weight; dogs with marked decreases of prostate weight [2, 7]: 1/4; high dose dogs with lower absolute and relative prostate weights than controls [2, 7]: 2/4; Absolute Weight (mean prostate weight) [2, 8]: 5.65 GMs; Relative Weight* (mean prostate weight) [2, 8]: 0.055 % body weight; IC50 (HIV-1 protease): 1300 nM; inhibition at 1 µM (HIV-1 protease; HIV-1 Dose 1.000 uM): 79.5%; inhibition at 100 µM (HIV-1 protease; HIV-1 Dose 100.000 uM): 72%
CCC(Cc1ccccc1)c1cc(O)c(C(c2ccccc2)C2CC2)c(=O)o1 (stereo not drawn) [Example 86, 6-(1-Benzyl-propyl)-3-(cyclopropyl-phenyl-methyl)-4-hydroxy-pyran-2-one]	83	–	–	–	–	–	–	activity in testosterone 5α-reductase inhibitor assay [1]: had activity; inhibition at 1 µM (HIV-1 protease; HIV-1 Dose 1.000 uM): 58.1%; inhibition at 100 µM (HIV-1 protease; HIV-1 Dose 100.000 uM): 55.3%
CCC(CC1CCCOC1)c1cc(O)c(C(CC)c2ccccc2)c(=O)o1 (stereo not drawn) [Example 135, 4-Hydroxy-3-(1-phenylpropyl)-6-[1-[(tetrahydro-2H-pyran-3-yl)methyl]propyl]-2H-pyran-2-one]	103	12.4	26.5	65.6	87.9	99.9	45	activity in testosterone 5α-reductase inhibitor assay [1]: had activity
CCCC1(CCc2ccccc2)CC(O)=C(C(c2ccc(COCOC)s2)C2CC2)C(=O)O1 (stereo not drawn) [Example 240, 2H-Pyran-2-one, 3-(α-cyclopropyl-[5-(methoxymethoxy-methyl)-thiophen-2-yl]-methyl)-5,6-dihydro-4-hydroxy-6-(2-phenylethyl)-6-propyl-]	113	< 10	40.6	68.7	95	104	29.2	–
CCCC1(CCCc2ccccc2)CC(O)=C(C(c2ccc(COCOC)s2)C2CC2)C(=O)O1 (stereo not drawn) [Example 241, 2H-Pyran-2-one, 3-(α-cyclopropyl-[5-(methoxymethoxy-methyl)-thiophen-2-yl]-methyl)-5,6-dihydro-4-hydroxy-6-(3-phenylpropyl)-6-propyl-]	87.1	< 10	< 10	32.8	62.9	90.3	–	–
CCCC1(CCCc2ccccc2)CC(O)=C(C(c2ccccc2)c2ccccc2)C(=O)O1 (stereo not drawn) [Example 242, 2H-Pyran-2-one, 5,6-dihydro-3-diphenylmethyl-4-hydroxy-6-(3-phenylpropyl)-6-propyl-]	90.2	< 10	19.9	53.5	80.5	93.2	32.3	–
O=c1oc(C(CC2CC2)CC2CCCOC2)cc(O)c1C(c1ccccc1)C1CC1 (stereo not drawn) [Example 243, 3-(α-Cyclopropylbenzyl)-6-[1-cyclopropylmethyl-2-(tetrahydropyran-3-yl)ethyl]-4-hydroxy-2H-pyran-2-one]	105	< 10	36.2	70.5	94.7	102	69	–
CCS(=O)(=O)Nc1cccc(C(c2c(O)cc(C(CC3CC3)CC3CCCOC3)oc2=O)C2CC2)c1 (stereo not drawn) [Example 244]	103	20.7	57.9	81.9	90.6	99.4	15.4	–
Cc1ccc(S(=O)(=O)Nc2cccc(C(c3c(O)cc(C(CC4CC4)CC4CCCOC4)oc3=O)C3CC3)c2)cc1 (stereo not drawn) [Example 245]	96.9	25.9	58	83.3	90.3	94.1	20.6	–
CCC(Cc1ccccc1)c1cc(O)c(C(c2cccc(NS(=O)(=O)c3ccc(C)cc3)c2)C2CC2)c(=O)o1 (stereo not drawn) [Example 246]	92.7	24.7	60.1	79.9	92.3	93.3	21.6	–
CCC(Cc1ccccc1)c1cc(O)c(C(c2cccc(NS(=O)(=O)CC)c2)C2CC2)c(=O)o1 (stereo not drawn) [Example 247]	96.1	14.1	47	73.1	86.7	97	30.4	–
CCC(Cc1ccccc1)c1cc(O)c(C(c2cccc(NC(=O)Cc3cccnc3)c2)C2CC2)c(=O)o1 (stereo not drawn) [Example 248, 3-(α-Cyclopropyl-meta-(3-pyridylacetylamino)benzyl)-6-(α-ethylphenethyl)-4-hydroxy-2H-pyran-2-one]	101	< 10	31.6	63.7	86.5	99.2	61.7	–
CCC(Cc1ccccc1)c1cc(O)c(C(c2cccc(NC(=O)Cc3ccncc3)c2)C2CC2)c(=O)o1 (stereo not drawn) [Example 249, 3-(α-Cyclopropyl-meta-(4-pyridylacetylamino)benzyl)-6-(α-ethylphenethyl)-4-hydroxy-2H-pyran-2-one]	–	–	–	–	–	–	–	Ki (HIV-1 protease): 44.4 nM; inhibition at 0.123 µM (HIV-1 protease): < 10%; inhibition at 0.37 µM (HIV-1 protease): 40%; inhibition at 1.1 µM (HIV-1 protease): 70.3%; inhibition at 3.3 µM (HIV-1 protease): 88.5%; inhibition at 10 µM (HIV-1 protease): 103%; inhibition at 30 µM (HIV-1 protease): 107%
C=CC(c1ccccc1)c1c(O)cc(C)oc1=O (stereo not drawn) [PREPARATION 10, 4-Hydroxy-6-methyl-3-(1'-phenyl-2'-propenyl)-2-pyrone]	< 10	–	–	–	–	–	–	HIV activity (HIV-1 protease): found to have HIV activity; inhibition at 1 µM (HIV-1 protease; HIV-1 Dose 1.000 uM): < 10%; inhibition at 100 µM (HIV-1 protease; HIV-1 Dose 100.000 uM): 43.5%
Dimethyl 3-[(4-hydroxy-2-oxo-6-phenyl-2H-1-pyran-3-yl)(3-nitrophenyl)methyl] -1,3-propandioate [Example 29]	–	–	–	–	–	–	–	HIV-1 Protease % Inhib (HIV-1 protease; HIV-1 Dose 1.000 uM): <10%; HIV-1 Protease % Inhib (HIV-1 protease; HIV-1 Dose 10.000 uM): <10%; HIV-1 Protease % Inhib (HIV-1 protease; HIV-1 Dose 100.000 uM): 32.16%
Dimethyl 3-[(4-hydroxy-2-oxo-6-phenyl-2H-1-pyran-3-yl)(4-nitrophenyl)methyl] - 1,3-propandioate [Example 28]	–	–	–	–	–	–	–	HIV-1 Protease % Inhib (HIV-1 protease; HIV-1 Dose 1.000 uM): <10%; HIV-1 Protease % Inhib (HIV-1 protease; HIV-1 Dose 10.000 uM): 15.07%; HIV-1 Protease % Inhib (HIV-1 protease; HIV-1 Dose 100.000 uM): 76.68%
